In the supplement of paper PMC10733146:

Assays:
Test in all cases: viability relative to DMSO control (fraction); higher = less drug effect (more viable cells)
Settings in all cases: 48 h
Roscovitine = compound: CC[C@H](CO)Nc1nc(NCc2ccccc2)c2ncn(C(C)C)c2n1 [Roscovitine]
Method in brief: (§1)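 Primary mononuclear tumour cells (Ficoll-isolated from blood or bone marrow, or processed lymph node; fresh or cryopreserved) were plated at 4 × 10^4 cells per well in 384-well plates with pre-plated compounds at five concentrations, one well each. Medium was RPMI-1640 with penicillin/streptomycin, L-glutamine and human serum, at 37 °C and 5% CO2 for 48 h. Viability was read as CellTiter-Glo luminescence relative to the median of 16 inner DMSO wells.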

Etoposide = compound: COc1cc([C@@H]2c3cc4c(cc3[C@@H](O[C@@H]3O[C@@H]5CO[C@@H](C)O[C@H]5[C@H](O)[C@H]3O)[C@H]3COC(=O)[C@H]23)OCO4)cc(OC)c1O [Etoposide]
Method in brief: as §1

Pomalidomide = compound: Nc1cccc2c1C(=O)N(C1CCC(=O)NC1=O)C2=O [Pomalidomide]
Method in brief: as §1

Palbociclib = compound: CC(=O)c1c(C)c2cnc(Nc3ccc(N4CCNCC4)cn3)nc2n(C2CCCC2)c1=O [Palbociclib]
Method in brief: as §1

Chlorambucil = compound: O=C(O)CCCc1ccc(N(CCCl)CCCl)cc1 [Chlorambucil]
Method in brief: as §1

I-BET-762 = compound: CCNC(=O)C[C@@H]1N=C(c2ccc(Cl)cc2)c2cc(OC)ccc2-n2c(C)nnc21 [I-BET-762]
Method in brief: as §1

Barasertib = compound: CCN(CCCOc1ccc2c(Nc3cc(CC(=O)Nc4cccc(F)c4)[nH]n3)ncnc2c1)CCOP(=O)(O)O [Barasertib]
Method in brief: as §1

Filgotinib = compound: O=C(Nc1nc2cccc(-c3ccc(CN4CCS(=O)(=O)CC4)cc3)n2n1)C1CC1 [Filgotinib]
Method in brief: as §1

Thalidomide = compound: O=C1CCC(N2C(=O)c3ccccc3C2=O)C(=O)N1 [Thalidomide]
Method in brief: as §1

[1] = compound: O=C(NO)c1cccc(C(=O)NCCc2ccccc2)c1
Method in brief: as §1

Selinexor = compound: O=C(/C=C\n1cnc(-c2cc(C(F)(F)F)cc(C(F)(F)F)c2)n1)NNc1cnccn1 [Selinexor]
Method in brief: as §1

Navitoclax = compound: CC1(C)CCC(c2ccc(Cl)cc2)=C(CN2CCN(c3ccc(C(=O)NS(=O)(=O)c4ccc(N[C@H](CCN5CCOCC5)CSc5ccccc5)c(S(=O)(=O)C(F)(F)F)c4)cc3)CC2)C1 [Navitoclax]
Method in brief: as §1

Bendamustine = compound: Cn1c(CCCC(=O)O)nc2cc(N(CCCl)CCCl)ccc21 [Bendamustine]
Method in brief: as §1

[2] = compound: O=C(Nc1ccc2[nH]nc(-c3ccncc3)c2c1)[C@@H]1CCN(CC(=O)N2CCN(c3ccc(-c4ncccn4)cc3)CC2)C1
Method in brief: as §1

Duvelisib = compound: C[C@H](Nc1ncnc2nc[nH]c12)c1cc2cccc(Cl)c2c(=O)n1-c1ccccc1 [Duvelisib]
Method in brief: as §1

primary AML patient cells (S072)
viability (Roscovitine; 0.032 µM): 0.93
viability (Roscovitine; 0.16 µM): 0.85
viability (Roscovitine; 0.8 µM): 0.874
viability (Roscovitine; 4 µM): 0.82
viability (Roscovitine; 20 µM): 0.483
viability (Etoposide; 0.032 µM): 1.04
viability (Etoposide; 0.16 µM): 0.99
viability (Etoposide; 0.8 µM): 0.912
viability (Etoposide; 4 µM): 0.938
viability (Etoposide; 20 µM): 0.736
viability (Pomalidomide; 0.0032 µM): 0.977
viability (Pomalidomide; 0.016 µM): 1.13
viability (Pomalidomide; 0.08 µM): 1.19
viability (Pomalidomide; 0.4 µM): 1.14
viability (Pomalidomide; 2 µM): 1.25
viability (Palbociclib; 0.024 µM): 1.01
viability (Palbociclib; 0.12 µM): 0.922
viability (Palbociclib; 0.6 µM): 0.957
viability (Palbociclib; 3 µM): 0.747
viability (Palbociclib; 15 µM): 0.294
viability (Chlorambucil; 0.032 µM): 0.968
viability (Chlorambucil; 0.16 µM): 1.11
viability (Chlorambucil; 0.8 µM): 1.21
viability (Chlorambucil; 4 µM): 0.87
viability (Chlorambucil; 20 µM): 0.683
viability (I-BET-762; 0.008 µM): 0.946
viability (I-BET-762; 0.04 µM): 0.889
viability (I-BET-762; 0.2 µM): 0.787
viability (I-BET-762; 1 µM): 0.537
viability (I-BET-762; 5 µM): 0.393
viability (Barasertib; 0.0008 µM): 1.05
viability (Barasertib; 0.004 µM): 0.848
viability (Barasertib; 0.02 µM): 0.851
viability (Barasertib; 0.1 µM): 0.857
viability (Barasertib; 0.5 µM): 0.944
viability (Filgotinib; 0.024 µM): 0.952
viability (Filgotinib; 0.12 µM): 0.97
viability (Filgotinib; 0.6 µM): 0.942
viability (Filgotinib; 3 µM): 0.86
viability (Filgotinib; 15 µM): 0.295
viability (Thalidomide; 0.032 µM): 1.02
viability (Thalidomide; 0.16 µM): 0.953
viability (Thalidomide; 0.8 µM): 1.02
viability (Thalidomide; 4 µM): 1
viability (Thalidomide; 20 µM): 1.09
viability ([1]; 0.024 µM): 0.933
viability ([1]; 0.12 µM): 0.967
viability ([1]; 0.6 µM): 0.974
viability ([1]; 3 µM): 0.958
viability ([1]; 15 µM): 0.89
viability (Selinexor; 0.008 µM): 0.9
viability (Selinexor; 0.04 µM): 0.844
viability (Selinexor; 0.2 µM): 0.74
viability (Selinexor; 1 µM): 0.571
viability (Selinexor; 5 µM): 0.477
viability (Navitoclax; 0.0032 µM): 0.99
viability (Navitoclax; 0.016 µM): 1.18
viability (Navitoclax; 0.08 µM): 0.826
viability (Navitoclax; 0.4 µM): 0.709
viability (Navitoclax; 2 µM): 0.52
viability (Bendamustine; 0.032 µM): 0.999
viability (Bendamustine; 0.16 µM): 1.03
viability (Bendamustine; 0.8 µM): 1.02
viability (Bendamustine; 4 µM): 1.01
viability (Bendamustine; 20 µM): 0.839
viability ([2]; 0.008 µM): 0.924
viability ([2]; 0.04 µM): 0.878
viability ([2]; 0.2 µM): 0.808
viability ([2]; 1 µM): 0.716
viability ([2]; 5 µM): 0.569
viability (Duvelisib; 0.0016 µM): 0.875
viability (Duvelisib; 0.008 µM): 0.834
viability (Duvelisib; 0.04 µM): 0.78
viability (Duvelisib; 0.2 µM): 0.7
viability (Duvelisib; 1 µM): 0.612

primary CLL patient cells (S043)
viability (Roscovitine; 0.032 µM): 0.869
viability (Roscovitine; 0.16 µM): 0.972
viability (Roscovitine; 0.8 µM): 0.952
viability (Roscovitine; 4 µM): 1.08
viability (Roscovitine; 20 µM): 0.901
viability (Etoposide; 0.032 µM): 1.12
viability (Etoposide; 0.16 µM): 1.02
viability (Etoposide; 0.8 µM): 0.987
viability (Etoposide; 4 µM): 1.01
viability (Etoposide; 20 µM): 0.813
viability (Pomalidomide; 0.0032 µM): 0.98
viability (Pomalidomide; 0.016 µM): 1.07
viability (Pomalidomide; 0.08 µM): 1.08
viability (Pomalidomide; 0.4 µM): 1.02
viability (Pomalidomide; 2 µM): 1.03
viability (Palbociclib; 0.024 µM): 0.981
viability (Palbociclib; 0.12 µM): 0.959
viability (Palbociclib; 0.6 µM): 0.876
viability (Palbociclib; 3 µM): 0.722
viability (Palbociclib; 15 µM): 0.421
viability (Chlorambucil; 0.032 µM): 0.942
viability (Chlorambucil; 0.16 µM): 0.954
viability (Chlorambucil; 0.8 µM): 0.977
viability (Chlorambucil; 4 µM): 0.859
viability (Chlorambucil; 20 µM): 0.441
viability (I-BET-762; 0.008 µM): 0.909
viability (I-BET-762; 0.04 µM): 0.929
viability (I-BET-762; 0.2 µM): 0.947
viability (I-BET-762; 1 µM): 0.884
viability (I-BET-762; 5 µM): 0.756
viability (Barasertib; 0.0008 µM): 0.995
viability (Barasertib; 0.004 µM): 0.966
viability (Barasertib; 0.02 µM): 0.952
viability (Barasertib; 0.1 µM): 0.924
viability (Barasertib; 0.5 µM): 0.929
viability (Filgotinib; 0.024 µM): 0.911
viability (Filgotinib; 0.12 µM): 0.91
viability (Filgotinib; 0.6 µM): 0.894
viability (Filgotinib; 3 µM): 0.919
viability (Filgotinib; 15 µM): 0.257
viability (Thalidomide; 0.032 µM): 0.893
viability (Thalidomide; 0.16 µM): 0.892
viability (Thalidomide; 0.8 µM): 0.892
viability (Thalidomide; 4 µM): 0.939
viability (Thalidomide; 20 µM): 0.945
viability ([1]; 0.024 µM): 0.932
viability ([1]; 0.12 µM): 0.979
viability ([1]; 0.6 µM): 0.926
viability ([1]; 3 µM): 0.915
viability ([1]; 15 µM): 0.905
viability (Selinexor; 0.008 µM): 0.788
viability (Selinexor; 0.04 µM): 0.746
viability (Selinexor; 0.2 µM): 0.713
viability (Selinexor; 1 µM): 0.595
viability (Selinexor; 5 µM): 0.54
viability (Navitoclax; 0.0032 µM): 1.05
viability (Navitoclax; 0.016 µM): 0.991
viability (Navitoclax; 0.08 µM): 0.989
viability (Navitoclax; 0.4 µM): 0.85
viability (Navitoclax; 2 µM): 0.666
viability (Bendamustine; 0.032 µM): 0.993
viability (Bendamustine; 0.16 µM): 1.04
viability (Bendamustine; 0.8 µM): 0.96
viability (Bendamustine; 4 µM): 1.01
viability (Bendamustine; 20 µM): 0.743
viability ([2]; 0.008 µM): 0.757
viability ([2]; 0.04 µM): 0.734
viability ([2]; 0.2 µM): 0.683
viability ([2]; 1 µM): 0.661
viability ([2]; 5 µM): 0.629
viability (Duvelisib; 0.0016 µM): 0.768
viability (Duvelisib; 0.008 µM): 0.759
viability (Duvelisib; 0.04 µM): 0.704
viability (Duvelisib; 0.2 µM): 0.739
viability (Duvelisib; 1 µM): 0.677

primary MCL patient cells (S068)
viability (Roscovitine; 0.032 µM): 0.834
viability (Roscovitine; 0.16 µM): 0.913
viability (Roscovitine; 0.8 µM): 0.772
viability (Roscovitine; 4 µM): 0.717
viability (Roscovitine; 20 µM): 0.351
viability (Etoposide; 0.032 µM): 1.03
viability (Etoposide; 0.16 µM): 0.956
viability (Etoposide; 0.8 µM): 0.952
viability (Etoposide; 4 µM): 0.933
viability (Etoposide; 20 µM): 0.624
viability (Pomalidomide; 0.0032 µM): 0.909
viability (Pomalidomide; 0.016 µM): 0.93
viability (Pomalidomide; 0.08 µM): 0.98
viability (Pomalidomide; 0.4 µM): 0.929
viability (Pomalidomide; 2 µM): 0.767
viability (Palbociclib; 0.024 µM): 0.913
viability (Palbociclib; 0.12 µM): 0.842
viability (Palbociclib; 0.6 µM): 0.547
viability (Palbociclib; 3 µM): 0.367
viability (Palbociclib; 15 µM): 0.262
viability (Chlorambucil; 0.032 µM): 1.02
viability (Chlorambucil; 0.16 µM): 1.03
viability (Chlorambucil; 0.8 µM): 0.941
viability (Chlorambucil; 4 µM): 0.857
viability (Chlorambucil; 20 µM): 0.624
viability (I-BET-762; 0.008 µM): 0.993
viability (I-BET-762; 0.04 µM): 0.932
viability (I-BET-762; 0.2 µM): 0.69
viability (I-BET-762; 1 µM): 0.341
viability (I-BET-762; 5 µM): 0.218
viability (Barasertib; 0.0008 µM): 0.947
viability (Barasertib; 0.004 µM): 0.894
viability (Barasertib; 0.02 µM): 0.846
viability (Barasertib; 0.1 µM): 0.887
viability (Barasertib; 0.5 µM): 0.97
viability (Filgotinib; 0.024 µM): 0.923
viability (Filgotinib; 0.12 µM): 0.909
viability (Filgotinib; 0.6 µM): 0.956
viability (Filgotinib; 3 µM): 1.13
viability (Filgotinib; 15 µM): 0.614
viability (Thalidomide; 0.032 µM): 0.978
viability (Thalidomide; 0.16 µM): 0.936
viability (Thalidomide; 0.8 µM): 0.917
viability (Thalidomide; 4 µM): 0.966
viability (Thalidomide; 20 µM): 0.96
viability ([1]; 0.024 µM): 0.903
viability ([1]; 0.12 µM): 0.889
viability ([1]; 0.6 µM): 0.885
viability ([1]; 3 µM): 0.965
viability ([1]; 15 µM): 0.891
viability (Selinexor; 0.008 µM): 0.862
viability (Selinexor; 0.04 µM): 0.947
viability (Selinexor; 0.2 µM): 1.31
viability (Selinexor; 1 µM): 1.01
viability (Selinexor; 5 µM): 1.12
viability (Navitoclax; 0.0032 µM): 1.04
viability (Navitoclax; 0.016 µM): 0.906
viability (Navitoclax; 0.08 µM): 0.642
viability (Navitoclax; 0.4 µM): 0.326
viability (Navitoclax; 2 µM): 0.191
viability (Bendamustine; 0.032 µM): 0.962
viability (Bendamustine; 0.16 µM): 0.942
viability (Bendamustine; 0.8 µM): 0.956
viability (Bendamustine; 4 µM): 0.926
viability (Bendamustine; 20 µM): 0.656
viability ([2]; 0.008 µM): 0.882
viability ([2]; 0.04 µM): 0.828
viability ([2]; 0.2 µM): 0.768
viability ([2]; 1 µM): 0.7
viability ([2]; 5 µM): 0.665
viability (Duvelisib; 0.0016 µM): 0.69
viability (Duvelisib; 0.008 µM): 0.635
viability (Duvelisib; 0.04 µM): 0.572
viability (Duvelisib; 0.2 µM): 0.585
viability (Duvelisib; 1 µM): 0.493
